Measured values from US8067042B1 (Mutual Pharmaceutical Company, Inc., priority 2007, dated 2011).
Values joined by “and” are separate entries in the source; they are usually repeats but may differ in a detail not shown here. Equal values may be shown once. Read-outs that look alike come from different tables or passages of the source. Marks after values point to notes of the source that are not given here.

What was measured:
[1] = biological target: CYP3A4 (Homo sapiens, UniProt P08684)
Procedure: (§4) The stock solutions were added to incubation mixtures to obtain the final concentrations of 5 and 50 μM, each containing 1% acetonitrile.
(§5) After a 5 minute preincubation, nicotinamide adenine dinucleotide phosphate (NADPH) regenerating system (NRS; 1.7 mg/mL β-NADP, 7.8 mg/mL glucose-6-phosphate, and 6 units/mL glucose-6-phosphate dehydrogenase in 2% sodium bicarbonate solution) was added to initiate the reaction. The final incubation volume was 0.5 mL. Incubations were continued for 60 minutes.
(§6) All incubations were conducted at 37±1° C. in a shaking water bath. All incubations were carried out in triplicates.
(§7) After a 5-minute preincubation, 2% sodium bicarbonate solution was added to the incubation mixtures. The final incubation volume was 0.5 mL. Incubations were continued for 60 minutes.
(§8) Incubation reactions, including the matrix controls and metabolic negative controls, were terminated by adding 0.5 mL methanol.
(§9) The samples were analyzed on a Supelcosil LC-18 column (3μ, 120 Å, 3.0×100 mm).

[2] = biological target: CYP2C19 (Homo sapiens, UniProt P33261)
Procedure: as §4
(§10) Microsomes were prepared by differential centrifugation of liver homogenates pooled from at least ten human donors.
as §5, §6, §7, §8, §9

[3] = biological target: T1, Human CYP2C8 + P450 Reductase + Cytochrome b5 SUPERSOMES (Homo sapiens, UniProt P10632)
T1 sequence (P10632 1-490): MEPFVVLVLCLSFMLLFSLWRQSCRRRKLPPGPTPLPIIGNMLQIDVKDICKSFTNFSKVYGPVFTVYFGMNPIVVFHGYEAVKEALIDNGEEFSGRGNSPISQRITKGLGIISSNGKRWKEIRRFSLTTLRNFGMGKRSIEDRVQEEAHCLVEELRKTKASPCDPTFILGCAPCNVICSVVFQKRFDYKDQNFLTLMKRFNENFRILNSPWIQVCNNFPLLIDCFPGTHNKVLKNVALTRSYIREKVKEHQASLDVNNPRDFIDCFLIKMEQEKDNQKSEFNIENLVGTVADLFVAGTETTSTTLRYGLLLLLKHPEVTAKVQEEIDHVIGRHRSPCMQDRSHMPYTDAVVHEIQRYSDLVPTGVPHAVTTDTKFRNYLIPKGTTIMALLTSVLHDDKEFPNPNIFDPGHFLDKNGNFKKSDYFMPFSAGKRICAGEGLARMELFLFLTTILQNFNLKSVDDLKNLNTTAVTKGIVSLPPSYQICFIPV
Procedure: (§1) In this study, individual CYP isoforms expressed from human cDNA and P450 reductase cDNA were used (BD SUPERSOMES™ Enzymes, BD Biosciences Discovery Labware, Woburn, Mass.). SUPERSOMES™ are microsomes from baculovirus-infected insect cells containing singly expressed recombinant human CYP enzymes.
(§2) After a 5-minute preincubation, an appropriate amount of the appropriate buffer was added to the reaction mixtures to make the final volume of 0.5 mL. The incubations were continued for 60 minutes.
(§3) All incubation reactions were terminated by adding 0.5 mL methanol, and the samples were transferred to cryovials and stored at −70±10° C. until analysis.

[4] = biological target: Human CYP2C9*1 (Arg144) + P450 Reductase + Cytochrome b5 SUPERSOMES (Homo sapiens, UniProt P11712)
Procedure: as §1, §2, §3

[5] = biological target: T2, Human CYP2B6 + P450 Reductase + Cytochrome b5 SUPERSOMES (Homo sapiens, UniProt P20813)
T2 sequence (P20813 1-491): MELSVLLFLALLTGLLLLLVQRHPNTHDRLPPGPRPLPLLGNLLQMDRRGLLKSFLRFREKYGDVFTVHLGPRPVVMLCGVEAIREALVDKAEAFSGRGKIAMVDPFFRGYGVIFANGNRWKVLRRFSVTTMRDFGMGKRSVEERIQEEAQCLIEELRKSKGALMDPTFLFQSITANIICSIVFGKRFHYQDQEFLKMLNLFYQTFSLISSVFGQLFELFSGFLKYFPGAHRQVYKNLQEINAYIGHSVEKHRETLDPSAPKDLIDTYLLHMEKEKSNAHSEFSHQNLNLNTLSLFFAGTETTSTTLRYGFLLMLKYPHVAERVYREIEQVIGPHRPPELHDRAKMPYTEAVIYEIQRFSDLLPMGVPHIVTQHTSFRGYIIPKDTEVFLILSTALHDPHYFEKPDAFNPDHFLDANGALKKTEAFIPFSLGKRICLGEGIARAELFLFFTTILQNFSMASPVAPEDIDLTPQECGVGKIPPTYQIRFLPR
Procedure: as §1, §2, §3

[6] = biological target: Human CYP2D6*1 + P450 Reductase SUPERSOMES (Homo sapiens, UniProt P10635)
Procedure: as §1, §2, §3

[7] = biological target: Human CYP3A4 + P450 Reductase + Cytochrome b5 SUPERSOMES (Homo sapiens, UniProt P08684)
Procedure: as §1, §2, §3

[8] = biological target: CYP2C9 (Homo sapiens, UniProt P11712)
Procedure: as §4, §10, §5, §6, §7, §8, §9

[9] = human, microsomes, 60 min, pH 7.4
[10] = 5 μM, 5 pmol enzyme, listed as megestrol acetate
[11] = 5 μM, 20 pmol enzyme, listed as megestrol acetate
[12] = 50 μM, 5 pmol enzyme, listed as megestrol acetate
[13] = 50 μM, 20 pmol enzyme, listed as megestrol acetate

Human CYP3A4 + P450 Reductase + Cytochrome b5 SUPERSOMES, sequence (P08684 whole entry): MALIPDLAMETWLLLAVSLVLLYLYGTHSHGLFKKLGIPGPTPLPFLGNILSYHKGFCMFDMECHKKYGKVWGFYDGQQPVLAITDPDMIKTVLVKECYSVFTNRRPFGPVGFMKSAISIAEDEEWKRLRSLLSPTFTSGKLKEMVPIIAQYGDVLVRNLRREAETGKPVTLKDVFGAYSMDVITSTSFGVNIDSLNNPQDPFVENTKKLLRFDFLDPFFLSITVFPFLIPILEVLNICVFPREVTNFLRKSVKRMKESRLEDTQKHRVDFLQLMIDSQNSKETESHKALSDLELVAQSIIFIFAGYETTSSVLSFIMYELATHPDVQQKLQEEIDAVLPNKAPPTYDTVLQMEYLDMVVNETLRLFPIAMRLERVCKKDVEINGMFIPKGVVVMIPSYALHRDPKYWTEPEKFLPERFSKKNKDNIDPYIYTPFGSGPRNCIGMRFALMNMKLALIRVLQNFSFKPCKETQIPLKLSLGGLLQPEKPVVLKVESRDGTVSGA
CYP3A4, sequence (P08684 whole entry): as above
CYP2C19, sequence (P33261 whole entry): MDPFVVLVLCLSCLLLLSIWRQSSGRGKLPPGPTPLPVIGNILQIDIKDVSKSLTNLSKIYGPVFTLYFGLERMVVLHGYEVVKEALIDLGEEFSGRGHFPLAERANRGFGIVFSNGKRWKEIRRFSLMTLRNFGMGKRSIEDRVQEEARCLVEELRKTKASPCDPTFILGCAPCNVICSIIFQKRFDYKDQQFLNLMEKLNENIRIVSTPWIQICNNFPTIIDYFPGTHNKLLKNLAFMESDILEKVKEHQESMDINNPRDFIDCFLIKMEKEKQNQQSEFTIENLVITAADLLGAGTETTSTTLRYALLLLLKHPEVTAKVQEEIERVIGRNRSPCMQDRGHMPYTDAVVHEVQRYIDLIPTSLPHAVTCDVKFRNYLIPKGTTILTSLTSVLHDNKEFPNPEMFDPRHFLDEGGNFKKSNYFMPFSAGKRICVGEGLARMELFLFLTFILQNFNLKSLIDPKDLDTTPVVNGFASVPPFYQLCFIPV
CYP2C9, sequence (P11712 whole entry): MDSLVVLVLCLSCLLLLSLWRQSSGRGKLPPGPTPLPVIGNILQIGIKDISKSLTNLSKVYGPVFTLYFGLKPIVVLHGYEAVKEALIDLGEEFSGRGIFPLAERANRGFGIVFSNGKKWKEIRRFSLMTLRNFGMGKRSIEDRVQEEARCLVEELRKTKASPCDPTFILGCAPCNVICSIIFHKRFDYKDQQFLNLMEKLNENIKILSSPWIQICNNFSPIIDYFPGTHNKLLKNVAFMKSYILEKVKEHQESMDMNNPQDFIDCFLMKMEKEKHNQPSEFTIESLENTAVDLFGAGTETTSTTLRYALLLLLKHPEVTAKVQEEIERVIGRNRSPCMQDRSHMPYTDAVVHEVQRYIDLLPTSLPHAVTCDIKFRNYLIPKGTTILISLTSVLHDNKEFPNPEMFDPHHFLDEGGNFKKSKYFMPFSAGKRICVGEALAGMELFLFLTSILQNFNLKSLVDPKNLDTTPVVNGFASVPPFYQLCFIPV

CC(=O)O[C@]1(C(C)=O)CC[C@H]2[C@@H]3C=C(C)C4=CC(=O)CC[C@]4(C)[C@H]3CC[C@@]21C [Megestrol Acetate, 17 α-acetyloxy-6-methylpregna-4,6-diene-3,20-dione]
percent metabolized in presence vs absence of inhibitor (unpaired two-tailed t-test) [1]: less than that of the percentage of megestrol acetate metabolized in the absence of the inhibitor
metabolized in pooled human liver microsomes [1, 9]: > 20%
percent metabolized in presence vs absence of inhibitor (unpaired two-tailed t-test) [2]: not different from the percentage of megestrol acetate metabolized in the absence of the inhibitor
metabolized in pooled human liver microsomes [2, 9]: > 20%
Individual Raw Data Observed ([3]; 5 μM, 5 pmol enzyme): 2.202 µM and 3.025 µM and 2.609 µM
Percent of Parent Disappearance Mean ± SD ([3]; 5 μM, 5 pmol enzyme): −18.0 ± 18.6%
Percent of Parent Disappearance Mean ± SD [3, 10]: no disappearance of megestrol acetate was detected
Individual Raw Data Observed ([3]; 5 μM, 20 pmol enzyme): 1.94 µM and 1.985 µM and 2.045 µM
Percent of Parent Disappearance Individual ([3]; 5 μM, 20 pmol enzyme): 2.05% and −0.201% and −3.26%
Percent of Parent Disappearance Mean ± SD ([3]; 5 μM, 20 pmol enzyme): −0.468 ± 2.66%
Percent of Parent Disappearance Mean ± SD [3, 11]: no disappearance of megestrol acetate was detected
Individual Raw Data Observed ([3]; 50 μM, 5 pmol enzyme): 21.4 µM and 22.9 µM and 22.7 µM
Percent of Parent Disappearance Individual ([3]; 50 μM, 5 pmol enzyme): 1.01% and −5.95% and −5.01%
Percent of Parent Disappearance Mean ± SD ([3]; 50 μM, 5 pmol enzyme): −3.32 ± 3.78%
Percent of Parent Disappearance Mean ± SD [3, 12]: no disappearance of megestrol acetate was detected
Individual Raw Data Observed ([3]; 50 μM, 20 pmol enzyme): 19.69 µM and 20.64 µM and 20.58 µM
Percent of Parent Disappearance Individual ([3]; 50 μM, 20 pmol enzyme): −0.513% and −5.33% and −5.02%
Percent of Parent Disappearance Mean ± SD ([3]; 50 μM, 20 pmol enzyme): −3.62 ± 2.70%
Percent of Parent Disappearance Mean ± SD [3, 13]: no disappearance of megestrol acetate was detected
Individual Raw Data Observed ([4]; 5 μM, 5 pmol enzyme): 2.098 µM and 2.127 µM and 2.133 µM
Percent of Parent Disappearance Individual ([4]; 5 μM, 5 pmol enzyme): 3.68% and 2.33% and 2.08%
Percent of Parent Disappearance Mean ± SD ([4]; 5 μM, 5 pmol enzyme): 2.70 ± 0.860%
Percent of Parent Disappearance Mean ± SD [4, 10]: 2.70±0.860%
Individual Raw Data Observed ([4]; 5 μM, 20 pmol enzyme): 2.314 µM and 2.379 µM and 2.134 µM
Percent of Parent Disappearance Individual ([4]; 5 μM, 20 pmol enzyme): 9.53% and 6.99% and 16.6%
Percent of Parent Disappearance Mean ± SD ([4]; 5 μM, 20 pmol enzyme): 11.0 ± 4.96%
Percent of Parent Disappearance Mean ± SD [4, 11]: 11.0±4.96%
Individual Raw Data Observed ([4]; 50 μM, 5 pmol enzyme): 20.38 µM and 20.18 µM and 20.9 µM
Percent of Parent Disappearance Individual ([4]; 50 μM, 5 pmol enzyme): 21.5% and 22.2% and 19.5%
Percent of Parent Disappearance Mean ± SD ([4]; 50 μM, 5 pmol enzyme): 21.0 ± 1.43%
Percent of Parent Disappearance Mean ± SD [4, 12]: 21.0±1.43%
Individual Raw Data Observed ([4]; 50 μM, 20 pmol enzyme): 24.33 µM and 21.36 µM and 25.28 µM
Percent of Parent Disappearance Individual ([4]; 50 μM, 20 pmol enzyme): −1.60% and 10.8% and −5.60%
Percent of Parent Disappearance Mean ± SD ([4]; 50 μM, 20 pmol enzyme): 1.19 ± 8.54%
Percent of Parent Disappearance Mean ± SD [4, 13]: 1.19±8.54%
Individual Raw Data Observed ([5]; 5 μM, 5 pmol enzyme): 2.221 µM and 2.3 µM and 2.31 µM
Percent of Parent Disappearance Individual ([5]; 5 μM, 5 pmol enzyme): −0.459% and −4.00% and −4.49%
Percent of Parent Disappearance Mean ± SD ([5]; 5 μM, 5 pmol enzyme): −2.98 ± 2.20%
Percent of Parent Disappearance Mean ± SD [5, 10]: 2.98±2.20%
Individual Raw Data Observed ([5]; 5 μM, 20 pmol enzyme): 2.474 µM and 2.381 µM and 2.385 µM
Percent of Parent Disappearance Individual ([5]; 5 μM, 20 pmol enzyme): −0.257% and 3.52% and 3.37%
Percent of Parent Disappearance Mean ± SD ([5]; 5 μM, 20 pmol enzyme): 2.21 ± 2.14%
Percent of Parent Disappearance Mean ± SD [5, 11]: 2.21±2.14%
Individual Raw Data Observed ([5]; 50 μM, 5 pmol enzyme): 20.88 µM and 21.85 µM and 25.99 µM
Percent of Parent Disappearance Individual ([5]; 50 μM, 5 pmol enzyme): 3.63% and −0.862% and −20.0%
Percent of Parent Disappearance Mean ± SD ([5]; 50 μM, 5 pmol enzyme): −5.73 ± 12.5%
Percent of Parent Disappearance Mean ± SD [5, 12]: 5.73±12.5%
Individual Raw Data Observed ([5]; 50 μM, 20 pmol enzyme): 21.46 µM and 22.47 µM and 22.35 µM
Percent of Parent Disappearance Mean ± SD ([5]; 50 μM, 20 pmol enzyme): 2.53 ± 2.43%
Percent of Parent Disappearance Mean ± SD [5, 13]: 2.53±2.43%
Individual Raw Data Observed ([6]; 5 μM, 5 pmol enzyme): 1.94 µM and 2.747 µM and 2.056 µM
Percent of Parent Disappearance Mean ± SD ([6]; 5 μM, 5 pmol enzyme): −13.6 ± 022.0%
Percent of Parent Disappearance Mean ± SD [6, 10]: no substrate disappearance was detected
Individual Raw Data Observed ([6]; 5 μM, 20 pmol enzyme): 2.325 µM and 2.386 µM and 2.39 µM
Percent of Parent Disappearance Individual ([6]; 5 μM, 20 pmol enzyme): 4.68% and 2.15% and 2.01%
Percent of Parent Disappearance Mean ± SD ([6]; 5 μM, 20 pmol enzyme): 2.95 ± 1.50%
Percent of Parent Disappearance Mean ± SD [6, 11]: 2.95±2.46%
Individual Raw Data Observed ([6]; 50 μM, 5 pmol enzyme): 18.2 µM and 22.44 µM and 18.03 µM
Percent of Parent Disappearance Individual ([6]; 50 μM, 5 pmol enzyme): −3.00% and −27.0% and −2.03%
Percent of Parent Disappearance Mean ± SD [6, 12]: no substrate disappearance was detected
Individual Raw Data Observed ([6]; 50 μM, 20 pmol enzyme): 12.44 µM and 13.43 µM and 12.62 µM
Percent of Parent Disappearance Individual ([6]; 50 μM, 20 pmol enzyme): 1.88% and −5.91% and 0.449%
Percent of Parent Disappearance Mean ± SD ([6]; 50 μM, 20 pmol enzyme): −1.19 ± 04.14%
Percent of Parent Disappearance Mean ± SD [6, 13]: no substrate disappearance was detected
Individual Raw Data Observed ([7]; 5 μM, 5 pmol enzyme): 0.8008 µM and 0.7908 µM and 0.8634 µM
Percent of Parent Disappearance Individual ([7]; 5 μM, 5 pmol enzyme): 58.1% and 58.6% and 54.8%
Percent of Parent Disappearance Mean ± SD ([7]; 5 μM, 5 pmol enzyme): 57.2 ± 02.06%
Percent of Parent Disappearance Mean ± SD [7, 10]: 57.2±2.06%
Individual Raw Data Observed ([7]; 5 μM, 20 pmol enzyme): 0.00000 ^a μM
Percent of Parent Disappearance Individual ([7]; 5 μM, 20 pmol enzyme): >93.6%
Percent of Parent Disappearance Mean ± SD ([7]; 5 μM, 20 pmol enzyme): >93.6 ± 0.000%
Percent of Parent Disappearance Mean ± SD [7, 11]: > 93.6±0.000%
Individual Raw Data Observed ([7]; 50 μM, 5 pmol enzyme): 14.3 µM and 14.66 µM and 14.98 µM
Percent of Parent Disappearance Individual ([7]; 50 μM, 5 pmol enzyme): 20.9% and 18.9% and 17.1%
Percent of Parent Disappearance Mean ± SD ([7]; 50 μM, 5 pmol enzyme): 18.9 ± 1.90%
Percent of Parent Disappearance Mean ± SD [7, 12]: 18.9±1.90%
Individual Raw Data Observed ([7]; 50 μM, 20 pmol enzyme): 5.336 µM and 5.631 µM and 6.813 µM
Percent of Parent Disappearance Individual ([7]; 50 μM, 20 pmol enzyme): 73.5% and 72.0% and 66.1%
Percent of Parent Disappearance Mean ± SD ([7]; 50 μM, 20 pmol enzyme): 70.5 ± 3.89%
Percent of Parent Disappearance Mean ± SD [7, 13]: 70.5±3.89%
percent metabolized in presence vs absence of inhibitor (unpaired two-tailed t-test) [8]: not different from the percentage of megestrol acetate metabolized in the absence of the inhibitor
metabolized in pooled human liver microsomes [8, 9]: > 20%
